What was measured:
[1] = tested on: OPM-2 human multiple myeloma cell line; experiment: Cell Viability Assay (OPM-2 10 FBS); assay type: cell-based; details: Homo sapiens, OPM-2 cells, CellTiter-Glo
Protocol: Cell Viability Assay (OPM-2 10 FBS)
Cells were seeded into 384-well plates at 3000 cells/well density in complete growth medium containing 10% FBS, and incubated for 16 h with serially diluted test compounds in a 37° C. incubator with 5% CO2. Cell viability was tested using CellTiter-Glo® assay (Promega, Madison, WI) according to the manufacturer recommendations. Luminescence was determined using an EnVision® Multilabel plate reader 25 min after the addition of detection reagent. IC50 values were then calculated with Xlfit using a logistical 4-parameter fit model in GraphPad Prism (GraphPad Software, San Diego, CA) or in Genedata Screener® (Genedata, Basel, Switzerland).

[2] = molecular target: T1, Mcl-1/Bim interaction, recombinant human Mcl-1 (171-327) (Homo sapiens, UniProt Q07820); experiment: Cell free Mcl-1: Bim Affinity Assay (Mcl-1 HTRF); assay type: binding
T1 construct: made in house
T1 sequence (Q07820 171-327): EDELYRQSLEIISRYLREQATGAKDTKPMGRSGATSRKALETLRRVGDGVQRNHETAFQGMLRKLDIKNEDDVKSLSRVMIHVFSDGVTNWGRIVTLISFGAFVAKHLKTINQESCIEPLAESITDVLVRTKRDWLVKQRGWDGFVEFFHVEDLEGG
How it was run: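 Compounds were mixed with the protein and a biotinylated Bim peptide spanning human residues 51-76. Plates were left overnight, then TR-FRET signal was measured. A four-parameter sigmoidal model applied to duplicate competition data gave IC50.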

[3] = TR-FRET, 0.1 nM Mcl-1 (171-327), 0.05 nM biotin-Bim (51-76)
[4] = cell free Mcl-1:Bim TR-FRET, recombinant human Mcl-1 (171-327)

Molecule | IC50 [2, 3] [nM] | further results
CO[C@H]1C/C=C/[C@H](C)[C@@H](C)S(=O)(=O)NC(=O)c2ccc3c(c2)N(C[C@@H]2CC[C@H]21)C[C@@]1(CCCc2cc(Cl)ccc21)CO3 [Example 17, (1S,3′R,6′R,7′S,9′E,11′S,12′R)-6-chloro-7′-methoxy-11′,12′-dimethyl-3,4-dihydro-2H,15′H-spiro[naphthalene-1,22′-[20]oxa[13]thia[1,14]diazatetracyclo[14.7.2.0^3,6.0^19,24]pentacosa[9,16,18,24]tetraen]-15′-one 13′,13′-dioxide] | – | IC50 ([1]; 16 h): 7920 nM
CC[C@@H]1CCCCC(=O)[C@@H]2CC[C@H]2CN2C[C@@]3(CCCc4cc(Cl)ccc43)COc3ccc(cc32)C(=O)NS1(=O)=O [Example 886, (1S,3′R,6′R,12′R)-6-chloro-12′-ethyl-3,4-dihydro-2H,7′H,15′H-spiro[naphthalene-1,22′-[20]oxa[13]thia[1,14]diazatetracyclo[14.7.2.0^3,6.0^19,24]pentacosa [16,18,24]triene]-7′,15′-dione 13′,13′-dioxide] | – | IC50 ([1]; OPM-2, 16 h, 16 h): 12300 nM
CC[C@@H]1CC/C=C/[C@H](OCC(=O)N2CCOCC2)[C@@H]2CC[C@H]2CN2C[C@@]3(CCCc4cc(Cl)ccc43)COc3ccc(cc32)C(=O)NS1(=O)=O [Example 979, (1S,3′R,6′R,7′S,8′E,12′R)-6-chloro-12′-ethyl-7′-(2-(4-morpholinyl)-2-oxoethoxy)-3,4-dihydro-2H,15′H-spiro[naphthalene-1,22′-[20]oxa[13]thia[1,14]diazatetracyclo[14.7.2.0^3,6.0^19,24]pentacosa [8,16,18,24]tetraen]-15′-one 13′,13′-dioxide] | – | IC50 ([1]; OPM-2, 16 h, 16 h incubation): 16900 nM
CC[C@@H]1CC/C=C/[C@H](NC(=O)C(C)C)[C@@H]2CC[C@H]2CN2C[C@@]3(CCCc4cc(Cl)ccc43)COc3ccc(cc32)C(=O)NS1(=O)=O [Example 1077, N-((1S,3′R,6′R,7′S,8′E,12′R)-6-chloro-12′-ethyl-13′,13′-dioxido-15′-oxo-3,4-dihydro-2H-spiro[naphthalene-1,22′-[20]oxa[13]thia[1,14]diazatetracyclo[14.7.2.0^3,6.0^19,24]pentacosa [8,16,18,24]tetraen]-7′-yl)-2-methylpropanamide] | 3.45 | –
CC[C@@H]1CCCC[C@@H](NC(C)=O)[C@@H]2CC[C@H]2CN2C[C@@]3(CCCc4cc(Cl)ccc43)COc3ccc(cc32)C(=O)NS1(=O)=O [Example 1080, N-((1S,3′R,6′R,7′R,12′R)-6-chloro-12′-ethyl-13′,13′-dioxido-15′-oxo-3,4-dihydro-2H-spiro[naphthalene-1,22′-[20]oxa[13]thia[1,14]diazatetracyclo[14.7.2.0^3,6.0^19,24]pentacosa [16,18,24]trien]-7′-yl)acetamide] | 1.14 | –
(1S,3′R,6′S,14′S,15′R)-6-chloro-3,4-dihydro-2H,9′H,17′H-spiro[naphthalene-1,24′-[22]oxa[15]thia[1,10,16]triazapentacyclo[16.7.2.1^10,14.0^3,6.0^21,26]octacosa[18,20,26]triene]-9′,17′-dione 15′-oxide or (1S,3′R,6′S,14′S,15′S)-6-chloro-3,4-dihydro-2H,9′H,17′H-spiro[naphthalene-1,24′-[22]oxa[15]thia[1,10,16]triazapentacyclo[16.7.2.1^10,14.0^3,6.0^21,26]octacosa[18,20,26]triene]-9′,17′-dione 15′-oxide [Example 948] | – | IC50 [2, 4]: 10.3 nM
(1S,3′R,6′S,14′S,15′S)-6-chloro-3,4-dihydro-2H,9′H,17′H-spiro[naphthalene-1,24′-[22]oxa[15]thia[1,10,16]triazapentacyclo[16.7.2.1^10,14.0^3,6.0^21,26]octacosa[18,20,26]triene]-9′,17′-dione 15′-oxide or (1S,3′R,6′S,14′S,15′R)-6-chloro-3,4-dihydro-2H,9′H,17′H-spiro[naphthalene-1,24′-[22]oxa[15]thia[1,10,16]triazapentacyclo[16.7.2.1^10,14.0^3,6.0^21,26]octacosa[18,20,26]triene]-9′,17′-dione 15′-oxide [Example 949] | – | IC50 [2, 4]: 8.43 nM
(3R,6R,7R,11E,22S)-6′-chloro-7-hydroxy-3′,4′-dihydro-2′H,15H-spiro[9,20-dioxa-13-thia-1,14-diazatetracyclo[14.7.2.0^3,6.0^19,24]pentacosa-11,16,18,24-tetraene-22,1′-naphthalen]-15-one 13,13-dioxide or (3R,6R,7S,11E,22S)-6′-chloro-7-hydroxy-3′,4′-dihydro-2′H,15H-spiro[9,20-dioxa-13-thia-1,14-diazatetracyclo[14.7.2.0^3,6.0^19,24]pentacosa-11,16,18,24-tetraene-22,1′-naphthalen]-15-one 13,13-dioxide [Example 863] | – | IC50 [2, 4]: 5.38 nM
N-((1S,3′R,6′R,7′S)-6-chloro-13′,13′-dioxido-15′-oxo-3,4-dihydro-2H-spiro[naphthalene-1,22′-[20]oxa[13]thia[1,14]diazatetracyclo[14.7.2.0^3,6.0^19,24]pentacosa [16,18,24]trien]-7′-yl)acetamide or N-((1S,3′R,6′R,7′R)-6-chloro-13′,13′-dioxido-15′-oxo-3,4-dihydro-2H-spiro[naphthalene-1,22′-[20]oxa[13]thia[1,14]diazatetracyclo[14.7.2.0^3,6.0^19,24]pentacosa [16,18,24]trien]-7′-yl)acetamide [Example 934] | – | IC50 [2, 4]: 2.07 nM

Further lines, with some results ahead:

IC50 [2, 3] [nM] | Molecule | further results
0.947 | CC[C@@H]1CC/C=C/[C@@H](NC(=O)C(C)C)[C@@H]2CC[C@H]2CN2C[C@@]3(CCCc4cc(Cl)ccc43)COc3ccc(cc32)C(=O)NS1(=O)=O [Example 1081] | –
18 | CC[C@@H]1CC/C=C\[C@@H](NC(=O)C(C)C)[C@@H]2CC[C@H]2CN2C[C@@]3(CCCc4cc(Cl)ccc43)COc3ccc(cc32)C(=O)NS1(=O)=O [Example 1082] | –
2.19 | CC[C@@H]1CCCC[C@@H](NC(=O)C(C)C)[C@@H]2CC[C@H]2CN2C[C@@]3(CCCc4cc(Cl)ccc43)COc3ccc(cc32)C(=O)NS1(=O)=O [Example 1083] | –
13.6 | O=C1NS(=O)(=O)CCCCCC[C@@H]2CC[C@H]2CN2C[C@@]3(CCCc4cc(Cl)ccc43)COc3ccc1cc32 [Example 1084, (1S,3′R,6′R)-6-chloro-3,4-dihydro-2H,15′H-spiro[naphthalene-1,22′-[20]oxa[13]thia[1,14]diazatetracyclo[14.7.2.0^3,6.0^19,24]pentacosa[16,18,24]trien]-15′-one 13′,13′-dioxide] | –
2.06 | O=C1NS(=O)(=O)C[C@H](CO)C/C=C/[C@H](O)[C@@H]2CC[C@H]2CN2C[C@@]3(CCCc4cc(Cl)ccc43)COc3ccc1cc32 [Example 1085, (1S,3′R,6′R,7′S,8′E,11′S)-6-chloro-7′-hydroxy-11′-(hydroxymethyl)-3,4-dihydro-2H,15′H-spiro [naphthalene-1,22′-[20]oxa[13]thia[1,14]diazatetracyclo[14.7.2.0^3,6.0^19,24]pentacosa [8,16,18,24]tetraen]-15′-one 13′,13′-dioxide] | –
3.69 | CO[C@@H]1/C=C/CCCS(=O)(=O)NC(=O)c2ccc3c(c2)N(C[C@@H]2CC[C@H]21)C[C@@]1(CCCc2cc(Cl)ccc21)CO3 [Example 1091, (1S,3′R,6′R,7′R,8′E)-6-chloro-7′-methoxy-3,4-dihydro-2H,15′H-spiro [naphthalene-1,22′-[20]oxa[13]thia[1,14]diazatetracyclo[14.7.2.0^3,6.0^19,24]pentacosa [8,16,18,24]tetraen]-15′-one 13′,13′-dioxide] | –
2.54 | CC[C@@H]1CC/C=C/[C@@H](OC)[C@@H]2CC[C@H]2CN2C[C@@]3(CCCc4cc(Cl)ccc43)COc3ccc(cc32)C(=O)NS1(=O)=O [Example 1093, (1S,3′R,6′R,7′R,8′E,12′R)-6-chloro-7′-methoxy-12′-ethyl-3,4-dihydro-2H,15′H-spiro [naphthalene-1,22′-[20]oxa[13]thia[1,14]diazatetracyclo[14.7.2.0^3,6.0^19,24]pentacosa [8,16,18,24]tetraen]-15′-one 13′,13′-dioxide] | –
17.8 | CO[C@@H]1CCCCCS(=O)(=O)NC(=O)c2ccc3c(c2)N(C[C@@H]2CC[C@H]21)C[C@@]1(CCCc2cc(Cl)ccc21)CO3 [Example 1094, (1S,3′R,6′R,7′R)-6-chloro-7′-methoxy-3,4-dihydro-2H,15′H-spiro [naphthalene-1,22′-[20]oxa[13]thia[1,14]diazatetracyclo[14.7.2.0^3,6.0^19,24]pentacosa [16,18,24]trien]-15′-one 13′,13′-dioxide] | –
1.29 | CS(=O)(=O)CCO[C@@H]1/C=C/CCCS(=O)(=O)NC(=O)c2ccc3c(c2)N(C[C@@H]2CC[C@H]21)C[C@@]1(CCCc2cc(Cl)ccc21)CO3 [Example 1095, (1S,3′R,6′R,7′R,8′E)-6-chloro-7′-(2-(methylsulfonyl)ethoxy)-3,4-dihydro-2H,15′H-spiro [naphthalene-1,22′-[20]oxa[13]thia[1,14]diazatetracyclo[14.7.2.0^3,6.0^19,24]pentacosa [8,16,18,24]tetraen]-15′-one 13′,13′-dioxide] | –
3.48 | CS(=O)(=O)CCO[C@@H]1CCCCCS(=O)(=O)NC(=O)c2ccc3c(c2)N(C[C@@H]2CC[C@H]21)C[C@@]1(CCCc2cc(Cl)ccc21)CO3 [Example 1096, (1S,3′R,6′R,7′R)-6-chloro-7′-(2-(methylsulfonyl)ethoxy)-3,4-dihydro-2H,15′H-spiro [naphthalene-1,22′-[20]oxa[13]thia[1,14]diazatetracyclo[14.7.2.0^3,6.0^19,24]pentacosa [16,18,24]trien]-15′-one 13′,13′-dioxide] | –

From US12091425B2 (AMGEN INC., priority 2016, dated 2024)
